# Assays:
# [1] = tested on: Parastagonospora nodorum; experiment: Parastagonospora nodorum (PARANO) spore growth inhibition in liquid medium, 96-well microtiter plate, OD 600; type: cell-based; details: spore suspension in PDB liquid medium, 18° C., 5-6 days, OD at 600, read-out: control compared to the untreated check
# Experimental: Potato dextrose (PDB) liquid medium (Difco) containing a PARANO (10^5 spores/ml) spore suspension was prepared. For the inhibition assay, each test compound was solved in dimethyl sulfoxide. 100 μl of the test compound in media-solution was added to a 96-well microtiter plate, consequently, the same volume (100 μl) of spore suspension was added to the well making the final test concentrations and the plate was incubated at 18° C. for 5-6 days. The growth inhibition was evaluated by measuring the OD at 600. Percent inhibition was calculated with the below formula: […]
# [2] = tested on: Phakopsora pachyrhizi; experiment: Phakopsora pachyrhizi test on soybean, preventive, greenhouse; type: in vivo; details: preventive spray on soybean, inoculated one day after treatment, read-out: control (efficacy, disease severity) compared to the untreated check
# Experimental: The respective compound was dissolved in 2% dimethyl sulfoxide/acetone and then mixed with water containing emulsifier to the calibrated spray volume of 30 mL. Each spray solution was poured into a spray bottle for further application.
# To test the preventive activity of a compound, healthy young soybean plants, raised in the greenhouse, were sprayed with the active compound preparation at the stated application rate inside the spray cabinets using hollow cone nozzles. One day after treatment, the plants were inoculated with a conidial suspension containing 2×10^5 Phakopsora pachyrhizi inoculum. The inoculated plants were then kept in a greenhouse chamber at 22-24° C. temperature and 80-90% relative humidity for disease expression.
# [3] = tested on: Pyricularia oryzae; experiment: microbe, parasite or virus in culture; type: cell-based; details: 168 h, read-out: control compared to the untreated check
SMILES,inhibition of growth at 300 ppm [1] [%],pest or weed control at 500 ppm [2] [%],inhibition of growth at 300 ppm [3] [%]
"Cn1ccc2cc(C(=O)NC(C)(C)Cc3ccc(C(C)(C)C)cc3)cnc21 [Compound 16, N-(1-(4-(tert-butyl)phenyl)-2-methylpropan-2-yl)-1-methyl-1H-pyrrolo[2,3-b]pyridine-5-carboxamide]",≥ 70,,
"Cn1ccc2cc(C(=O)NC(C)(C)Cc3ccccc3Cl)cnc21 [Compound 17, N-(1-(2-chlorophenyl)-2-methylpropan-2-yl)-1-methyl-1H-pyrrolo[2,3-b]pyridine-5-carboxamide]",≥ 70,,
"CC(C)c1ccc(CC(C)(C)NC(=O)c2cnc3c(ccn3C)c2)cc1 [Compound 18, N-(1-(4-isopropylphenyl)-2-methylpropan-2-yl)-1-methyl-1H-pyrrolo[2,3-b]pyridine-5-carboxamide]",≥ 70,,
"Cn1ccc2cc(C(=O)NC(C)(C)Cc3cccc(Cl)c3)cnc21 [Compound 22, N-(1-(3-chlorophenyl)-2-methylpropan-2-yl)-1-methyl-1H-pyrrolo[2,3-b]pyridine-5-carboxamide]",,≥ 70,
"Cn1ccc2cc(C(=O)NC(C)(C)Cc3ccc(Cl)c(Cl)c3)cnc21 [Compound 24, N-(1-(3,4-dichlorophenyl)-2-methylpropan-2-yl)-1-methyl-1H-pyrrolo[2,3-b]pyridine-5-carboxamide]",,≥ 70,≥ 70
"Cn1cc(Br)c2cc(C(=O)NC(C)(C)Cc3ccccc3F)cnc21 [Compound 58, 3-bromo-N-(1-(2-fluorophenyl)-2-methylpropan-2-yl)-1-methyl-1H-pyrrolo[2,3-b]pyridine-5-carboxamide]",,≥ 70,≥ 70
"Cn1cc(C2CC2)c2cc(C(=O)NC(C)(C)Cc3ccccc3F)cnc21 [Compound 60, 3-cyclopropyl-N-(1-(2-fluorophenyl)-2-methylpropan-2-yl)-1-methyl-1H-pyrrolo[2,3-b]pyridine-5-carboxamide]",≥ 70,,
"CC(c1ccccc1)C(C)(C)NC(=O)c1cnc2c(c1)c(Cl)cn2C (centres unmarked) [Compound 87, 3-chloro-1-methyl-N-(2-methyl-3-phenylbutan-2-yl)-1H-pyrrolo[2,3-b]pyridine-5-carboxamide]",,≥ 70,
"COc1nc2[nH]ccc2cc1C(=O)NC(C)(C)Cc1ccccc1 [Compound 88, 6-methoxy-N-(2-methyl-1-phenylpropan-2-yl)-1H-pyrrolo[2,3-b] pyridine-5-carboxamide]",,≥ 70,
"Cc1nc2[nH]ccc2cc1C(=O)NC(C)(C)Cc1ccccc1 [Compound 93, 6-methyl-N-(2-methyl-1-phenylpropan-2-yl)-1H-pyrrolo[2,3-b] pyridine-5-carboxamide]",,≥ 70,
"Cc1nc2[nH]ccc2cc1C(=O)NC(C)(C)Cc1ccc(F)cc1 [Compound 94, N-(1-(4-fluorophenyl)-2-methylpropan-2-yl)-6-methyl-1H-pyrrolo[2,3-b]pyridine-5-carboxamide]",,≥ 70,
"Cc1cccc(CC(NC(=O)c2cnc3[nH]ccc3c2)C(C)(C)O)c1 (centres unmarked) [Compound 104, N-(3-hydroxy-3-methyl-1-(m-tolyl)butan-2-yl)-1H-pyrrolo[2,3-b]pyridine-5-carboxamide]",,≥ 70,
"O=C(NC1(C(F)(F)F)CC1)c1cnc2ccsc2c1 [Compound 108, N-(1-(trifluoromethyl)cyclopropyl)thieno [3,2-b]pyridine-6-carboxamide]",≥ 70,,≥ 70
"C=CCC(C)(Cc1ccccc1F)NC(=O)c1cnc2ccsc2c1 (centres unmarked) [Compound 134, N-(1-(2-fluorophenyl)-2-methylpent-4-en-2-yl)thieno[3,2-b] pyridine-6-carboxamide]",,≥ 70,
"Cc1ccc(F)cc1C(O)C(C)(C)NC(=O)c1cnc2c(c1)c(Br)cn2C (centres unmarked) [Compound 135, 3-bromo-N-(1-(5-fluoro-2-methylphenyl)-1-hydroxy-2-methylpropan-2-yl)-1-methyl-1H-pyrrolo[2,3-b]pyridine-5-carboxamide]",≥ 70,,
"Cn1cc(Cl)c2cc(C(=O)NC3Cc4ccccc4C3)cnc21 [Compound 137, 3-chloro-N-(2,3-dihydro-1H-inden-2-yl)-1-methyl-1H-pyrrolo[2,3-b]pyridine-5-carboxamide]",,≥ 70,
"CCC(O)(CC)C(NC(=O)c1cnc2c(c1)c(Cl)cn2C)c1ccccc1 (centres unmarked) [Compound 138, 3-chloro-N-(2-ethyl-2-hydroxy-1-phenylbutyl)-1-methyl-1H-pyrrolo[2,3-b] pyridine-5-carboxamide]",,≥ 70,

SMILES,inhibition of growth at 300 ppm [1] [%],pest or weed control at 500 ppm [2] [%],inhibition of growth at 300 ppm [3] [%]
"Cn1cc(Cl)c2cc(C(=O)NC3(c4cc(Cl)cc(Cl)c4)CC3)cnc21 [Compound 140, 3-chloro-N-(1-(3,5-dichlorophenyl)cyclopropyl)-1-methyl-1H-pyrrolo[2,3-b]pyridine-5-carboxamide]",,≥ 70,
"C=C(C)CC(C)(Cc1ccccc1F)NC(=O)c1cnc2c(c1)c(Br)cn2C (centres unmarked) [Compound 142, 3-bromo-N-(1-(2-fluorophenyl)-2,4-dimethylpent-4-en-2-yl)-1-methyl-1H-pyrrolo[2,3-b]pyridine-5-carboxamide]",,≥ 70,
"Cc1cc(F)ccc1C(O)C(C)(C)NC(=O)c1cnc2ccsc2c1 (centres unmarked) [Compound 173, N-(1-(4-fluoro-2-methylphenyl)-1-hydroxy-2-methylpropan-2-yl)thieno[3,2-b] pyridine-6-carboxamide]",≥ 70,,
"C=C(C)CC(C)(COc1ccccc1F)NC(=O)c1cnc2c(c1)c(Br)cn2C (centres unmarked) [Compound 176, 3-bromo-N-(1-(2-fluorophenoxy)-2,4-dimethylpent-4-en-2-yl)-1-methyl-1H-pyrrolo[2,3-b]pyridine-5-carboxamide]",≥ 70,,≥ 70
C=C(C)CC(C)(COc1ccccc1F)NC(=O)c1cnc2c(c1)c(Cl)cn2C (centres unmarked) [Compound 179],≥ 70,,
"Cn1cc(Br)c2cc(C(=O)NC(C)(C)COC(=O)c3ccccc3C(F)(F)F)cnc21 [Compound 180, 2-(3-bromo-1-methyl-1H-pyrrolo[2,3-b]pyridine-5-carboxamido)-2-methylpropyl 2-(trifluoromethyl)benzoate]",,,≥ 70
"Cc1ccccc1C(=O)OCC(C)(C)NC(=O)c1cnc2c(c1)c(Br)cn2C [Compound 185, 2-(3-bromo-1-methyl-1H-pyrrolo[2,3-b]pyridine-5-carboxamido)-2-methylpropyl 2-methylbenzoate]",,,≥ 70
"Cc1ccc(COCC(C)(C)NC(=O)c2cnc3ccsc3c2)c(C)c1 [Compound 200, N-(1-((2,4-dimethylbenzyl)oxy)-2-methylpropan-2-yl)thieno[3,2-b] pyridine-6-carboxamide]",≥ 70,,
"CC(C)(COc1ccnc(Cl)c1)NC(=O)c1cnc2ccsc2c1 [Compound 205, N-(1-((2-chloropyridin-4-yl)oxy)-2-methylpropan-2-yl)thieno[3,2-b] pyridine-6-carboxamide]",≥ 70,,
"CC(C)(Cc1ccccc1)NC(=O)c1cc2c(nc1Cl)CCC2 [Compound 210, 2-chloro-N-(2-methyl-1-phenylpropan-2-yl)-6,7-dihydro-5H-cyclopenta[b]pyridine-3-carboxamide]",≥ 70,,
"Cn1cc(Cl)c2cc(C(=O)NC(C)(C)COCc3cc(F)ccc3Cl)cnc21 [Compound 214, 3-chloro-N-(1-((2-chloro-5-fluorobenzyl)oxy)-2-methylpropan-2-yl)-1-methyl-1H-pyrrolo[2,3-b]pyridine-5-carboxamide]",,,≥ 70
"COc1nc2c(cc1C(=O)NC(C)(C)Cc1ccccc1)CCC2 [Compound 217, 2-methoxy-N-(2-methyl-1-phenylpropan-2-yl)-6,7-dihydro-5H-cyclopenta[b]pyridine-3-carboxamide]",≥ 70,,
"Cn1cc(Cl)c2cc(C(=O)NC(C)(C)COc3ccnc(Cl)c3)cnc21 [Compound 220, 3-chloro-N-(1-((2-chloropyridin-4-yl)oxy)-2-methylpropan-2-yl)-1-methyl-1H-pyrrolo[2,3-b]pyridine-5-carboxamide]",,,≥ 70
"Cc1ccc(C)c(COCC(C)(C)NC(=O)c2cnc3c(ccn3C)c2)c1 [Compound 227, N-(1-((2,5-dimethylbenzyl)oxy)-2-methylpropan-2-yl)-1-methyl-1H-pyrrolo[2,3-b]pyridine-5-carboxamide]",≥ 70,,
"COc1nc2c(cc1C(=O)NC(C)(C)COc1ccnc(Cl)c1)CCC2 [Compound 243, N-(1-((2-chloropyridin-4-yl)oxy)-2-methylpropan-2-yl)-2-methoxy-6,7-dihydro-5H-cyclopenta[b]pyridine-3-carboxamide]",≥ 70,,
"COc1nc2c(cc1C(=O)NC1(Cc3ccccc3)CC1)CCC2 [Compound 245, N-(1-benzylcyclopropyl)-2-methoxy-6,7-dihydro-5H-cyclopenta[b]pyridine-3-carboxamide]",≥ 70,,
"CON(C(=O)c1cnc2c(c1)CCC2)C(C)Cc1ccccc1F (centres unmarked) [Compound 253, N-(1-(2-fluorophenyl)propan-2-yl)-N-methoxy-6,7-dihydro-5H-cyclopenta[b]pyridine-3-carboxamide]",≥ 70,,

# — US20250049036A1 (priority 2021, published 2025)
